The results in this text go back to US20240018133A1, “MODULATORS OF THE INTEGRATED STRESS PATHWAY” (Calico Life Sciences LLC, priority 2019, published 2024).

In general, EC50 refers to the concentration giving half of the maximal effect.

For the test, the system named is ATF4 luciferase reporter (human full-length ATF4 5'-UTR fused to firefly luciferase) in HEK293T cells. Description: ATF4-Luc assay (in vitro model of VWMD): HEK293T cells carrying ATF4 luciferase reporter, tunicamycin-treated. The format is cell-based. The note with it: Homo sapiens, HEK-293T, 1 μg/mL tunicamycin, 7 hours, One Glo luminescence. In short, it runs like this: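 Reporter cells were stably generated by retroviral transduction and puromycin selection, then seeded at 30,000 cells/well. Next day, cells received 1 μg/mL tunicamycin with 200 nM test compound for 7 h, and luciferase luminescence was read with a one-step reagent. Values reported as EC50.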
For orientation: A reporter such as luciferase makes a cellular process visible.
Take `O=C(COc1ccc(F)c(F)c1)NC12CC(NC(=O)[C@@H]3CC(=O)c4cc(Cl)ccc4O3)(C1)C2` [Compound 276, (2S)-6-chloro-N-{3-[2-(3,4-difluorophenoxy)acetamido]bicyclo[1.1.1]pentan-1-yl}-4-oxo-3,4-dihydro-2H-1-benzopyran-2-carboxamide]: the EC50 fell in the range of 10 to 50 nM. With `O=C(COc1ccc(F)c(F)c1)NC12CC(NC(=O)[C@H]3C[C@@H](O)c4cc(Cl)ccc4O3)(C1)C2` [Compound 277, (2R,4R)-6-chloro-N-{3-[2-(3,4-difluorophenoxy)acetamido]bicyclo[1.1.1]pentan-1-yl}-4-hydroxy-3,4-dihydro-2H-1-benzopyran-2-carboxamide] the figure was below 10 nM; with `O=C(COc1ccc(F)c(F)c1)NC12CC(NC(=O)[C@@H]3C[C@H](O)c4cc(Cl)ccc4O3)(C1)C2` [Compound 278, (2S,4S)-6-chloro-N-{3-[2-(3,4-difluorophenoxy)acetamido]bicyclo[1.1.1]pentan-1-yl}-4-hydroxy-3,4-dihydro-2H-1-benzopyran-2-carboxamide], 10 to 50 nM.

For `O=C(COc1ccc(Cl)c(F)c1)NC12CC(NC(=O)[C@@H]3C=Cc4cc(Cl)ccc4O3)(C1)C2` [Compound 279, (2S)-6-chloro-N-{3-[2-(4-chloro-3-fluorophenoxy)acetamido]bicyclo[1.1.1]pentan-1-yl}-2H-1-benzopyran-2-carboxamide], the EC50 is below 10 nM. For `Cc1cc(Cl)cc2c(=O)cc(C(=O)NC34CC(NC(=O)COc5ccc(Cl)c(F)c5)(C3)C4)oc12` [Compound 282, 6-chloro-N-{3-[2-(4-chloro-3-fluorophenoxy)acetamido]bicyclo[1.1.1]pentan-1-yl}-8-methyl-4-oxo-4H-1-benzopyran-2-carboxamide], the EC50 is above 2000 nM.

For `COc1ccc2c(=O)cc(C(=O)NC34CC(NC(=O)COc5ccc(Cl)c(F)c5)(C3)C4)oc2c1` [Compound 283, N-{3-[2-(4-chloro-3-fluorophenoxy)acetamido]bicyclo[1.1.1]pentan-1-yl}-7-methoxy-4-oxo-4H-1-benzopyran-2-carboxamide], the EC50 was 10 to 50 nM. As for `Cc1ccc2c(=O)cc(C(=O)NC34CC(NC(=O)COc5ccc(Cl)c(F)c5)(C3)C4)oc2c1` [Compound 284, N-{3-[2-(4-chloro-3-fluorophenoxy)acetamido]bicyclo[1.1.1]pentan-1-yl}-7-methyl-4-oxo-4H-1-benzopyran-2-carboxamide], the EC50 was 10 to 50 nM. Consider `Cc1cc2oc(C(=O)NC34CC(NC(=O)COc5ccc(Cl)c(F)c5)(C3)C4)cc(=O)c2cc1C` [Compound 285, N-{3-[2-(4-chloro-3-fluorophenoxy)acetamido]bicyclo[1.1.1]pentan-1-yl}-6,7-dimethyl-4-oxo-4H-1-benzopyran-2-carboxamide], for which the EC50 was below 10 nM. Under `O=C(COc1ccc(Cl)c(F)c1)NC12CC(NC(=O)c3cc(=O)c4ccc(OC(F)F)cc4o3)(C1)C2` [Compound 286, N-{3-[2-(4-chloro-3-fluorophenoxy)acetamido]bicyclo[1.1.1]pentan-1-yl}-7-(difluoromethoxy)-4-oxo-4H-1-benzopyran-2-carboxamide] stands 50 to 250 nM.

Regarding `COc1ccc2oc(C(=O)NC34CC(NC(=O)COc5ccc(Cl)c(F)c5)(C3)C4)cc(=O)c2c1` [Compound 287, N-{3-[2-(4-chloro-3-fluorophenoxy)acetamido]bicyclo[1.1.1]pentan-1-yl}-6-methoxy-4-oxo-4H-1-benzopyran-2-carboxamide], the EC50 lay in the range of 50 to 250 nM. `O=C(COc1ccc(Cl)c(F)c1)NC12CC(NC(=O)c3cc(=O)c4cc(Cl)cc(Cl)c4o3)(C1)C2` [Compound 289, 6,8-dichloro-N-{3-[2-(4-chloro-3-fluorophenoxy)acetamido]bicyclo[1.1.1]pentan-1-yl}-4-oxo-4H-1-benzopyran-2-carboxamide]: the EC50 fell in the range of 500 to 2000 nM. As for `CC(C)c1ccc2oc(C(=O)NC34CC(NC(=O)COc5ccc(Cl)c(F)c5)(C3)C4)cc(=O)c2c1` [Compound 290, N-{3-[2-(4-chloro-3-fluorophenoxy)acetamido]bicyclo[1.1.1]pentan-1-yl}-4-oxo-6-(propan-2-yl)-4H-1-benzopyran-2-carboxamide], the EC50 is 10 to 50 nM. As for `O=C(COc1ccc(Cl)c(F)c1)NC12CC(NC(=O)c3cc(=O)c4ccc5c(c4o3)OCO5)(C1)C2` [Compound 291, N-{3-[2-(4-chloro-3-fluorophenoxy)acetamido]bicyclo[1.1.1]pentan-1-yl}-6-oxo-2H,6H-[1,3]dioxolo[4,5-h][1]benzopyran-8-carboxamide], the EC50 is 50 to 250 nM.

Regarding `O=C(COc1ccc(Cl)c(F)c1)NC12CC(NC(=O)c3cc(=O)c4cc(F)cc(F)c4o3)(C1)C2` [Compound 292, N-{3-[2-(4-chloro-3-fluorophenoxy)acetamido]bicyclo[1.1.1]pentan-1-yl}-6,8-difluoro-4-oxo-4H-1-benzopyran-2-carboxamide], the half-maximal effective concentration (EC50) was 50 to 250 nM.

Regarding `O=C(COc1ccc(Cl)c(F)c1)NC12CC(NC(=O)c3cc(=O)c4cccc(Cl)c4o3)(C1)C2` [Compound 294, 8-chloro-N-{3-[2-(4-chloro-3-fluorophenoxy)acetamido]bicyclo[1.1.1]pentan-1-yl}-4-oxo-4H-1-benzopyran-2-carboxamide], the EC50 fell in the range of 500 to 2000 nM. With `O=C(COc1ccc(Cl)c(F)c1)NC12CC(NC(=O)c3cc(=O)c4ccc(O)cc4o3)(C1)C2` [Compound 295, N-{3-[2-(4-chloro-3-fluorophenoxy)acetamido]bicyclo[1.1.1]pentan-1-yl}-7-hydroxy-4-oxo-4H-1-benzopyran-2-carboxamide] the figure was above 2000 nM. Under `CCC1(O)CC(C(=O)NC23CC(NC(=O)COc4ccc(Cl)c(F)c4)(C2)C3)Oc2ccc(Cl)cc21` (stereo not shown) [Compound 297, 6-chloro-N-{3-[2-(4-chloro-3-fluorophenoxy)acetamido]bicyclo[1.1.1]pentan-1-yl}-4-ethyl-4-hydroxy-3,4-dihydro-2H-1-benzopyran-2-carboxamide] stands below 10 nM; under `O=C(COc1ccc(Cl)c(F)c1)NC12CC(NC(=O)C3C/C(=N\O)c4cc(F)ccc4O3)(C1)C2` (stereo not shown) [Compound 298, N-{3-[2-(4-chloro-3-fluorophenoxy)acetamido]bicyclo[1.1.1]pentan-1-yl}-6-fluoro-4-(hydroxyimino)-3,4-dihydro-2H-1-benzopyran-2-carboxamide], 10 to 50 nM.

As to `O=C(COc1ccc(C(F)(F)F)nc1)NC12CC(NC(=O)[C@@H]3C[C@H](O)c4cc(Cl)ccc4O3)(C1)C2` [Compound 299, (2S,4S)-6-chloro-4-hydroxy-N-[3-(2-{[6-(trifluoromethyl)pyridin-3-yl]oxy}acetamido)bicyclo[1.1.1]pentan-1-yl]-3,4-dihydro-2H-1-benzopyran-2-carboxamide], the EC50 lay within 10 to 50 nM. Turning to `O=C(COc1ccc(Cl)c(F)c1)NC12CC(NC(=O)C3CC(O)c4cc(F)ccc4O3)(C1)C2` (stereo not shown) [Compound 300, N-{3-[2-(4-chloro-3-fluorophenoxy)acetamido]bicyclo[1.1.1]pentan-1-yl}-6-fluoro-4-hydroxy-3,4-dihydro-2H-1-benzopyran-2-carboxamide], the half-maximal effective concentration (EC50) was below 10 nM. For the compound `CNC1CC(C(=O)NC23CCC(NC(=O)COc4ccc(Cl)c(F)c4)(CC2)[C@@H](O)C3)Oc2ccc(Cl)cc21` (stereo partly drawn) [Compound 303, 6-chloro-N-{(3S)-4-[2-(4-chloro-3-fluorophenoxy)acetamido]-3-hydroxybicyclo[2.2.2]octan-1-yl}-4-(methylamino)-3,4-dihydro-2H-1-benzopyran-2-carboxamide], the concentration giving a half-maximal response (EC50) was below 10 nM.

As for `O=C(NC12CCC(NC(=O)C3CC(=O)c4cc(Cl)ccc4O3)(CC1)CC2)c1cnc(C(F)F)cn1` (stereo not shown) [Compound 304, N-{4-[(6-chloro-4-oxo-3,4-dihydro-2H-1-benzopyran-2-carbonyl)amino]bicyclo[2.2.2]octan-1-yl}-5-(difluoromethyl)pyrazine-2-carboxamide], the EC50 fell in the range of 500 to 2000 nM. In the case of `NC1CC(C(=O)NC23CC(NC(=O)COc4ccc(Cl)c(F)c4)(C2)C3)Oc2ccc(Cl)cc21` (stereo not shown) [Compound 305, 4-amino-6-chloro-N-{3-[2-(4-chloro-3-fluorophenoxy)acetamido]bicyclo[1.1.1]pentan-1-yl}-3,4-dihydro-2H-1-benzopyran-2-carboxamide], the EC50 is below 10 nM. With `O=C(COc1ccc(Cl)c(F)c1)NC12CCC(NC(=O)[C@@H]3C[C@H](O)c4cc(Cl)ccc4O3)(CC1)CC2` [Compound 306, (2S,4S)-6-chloro-N-{4-[2-(4-chloro-3-fluorophenoxy)acetamido]bicyclo[2.2.2]octan-1-yl}-4-hydroxy-3,4-dihydro-2H-1-benzopyran-2-carboxamide] the figure was 10 to 50 nM.

For the compound `O=C(COc1ccc(Cl)c(F)c1)NC12CC(NC(=O)[C@H]3C=Cc4cc(Cl)ccc4O3)(C1)C2` [Compound 307, (2R)-6-chloro-N-{3-[2-(4-chloro-3-fluorophenoxy)acetamido]bicyclo[1.1.1]pentan-1-yl}-2H-1-benzopyran-2-carboxamide], the EC50 is below 10 nM. In the case of `O=C(COc1ccc(Cl)c(F)c1)NC12CC(NC(=O)[C@H]3C[C@@H](NCCO)c4cc(Cl)ccc4O3)(C1)C2` [Compound 308, (2R,4R)-6-chloro-N-{3-[2-(4-chloro-3-fluorophenoxy)acetamido]bicyclo[1.1.1]pentan-1-yl}-4-[(2-hydroxyethyl)amino]-3,4-dihydro-2H-1-benzopyran-2-carboxamide], the EC50 is 10 to 50 nM. With `O=C(COc1ccc(Cl)c(F)c1)NC12CC(NC(=O)[C@@H]3C[C@H](NCCO)c4cc(Cl)ccc4O3)(C1)C2` [Compound 309, (2S,4S)-6-chloro-N-{3-[2-(4-chloro-3-fluorophenoxy)acetamido]bicyclo[1.1.1]pentan-1-yl}-4-[(2-hydroxyethyl)amino]-3,4-dihydro-2H-1-benzopyran-2-carboxamide] the figure was below 10 nM; with `O=C(COc1ccc(Cl)c(F)c1)NC12CCC(NC(=O)C3CC(=O)c4cc(Cl)ccc4O3)(C1)C2` (stereo not shown) [Compound 310, 6-chloro-N-{4-[2-(4-chloro-3-fluorophenoxy)acetamido]bicyclo[2.1.1]hexan-1-yl}-4-oxo-3,4-dihydro-2H-1-benzopyran-2-carboxamide], 10 to 50 nM.
